# Data as given in patent publication US6914045B2, “Glycopeptide antibiotics” (Wyeth Holdings Corporation, priority 2001, dated 2005).
# Columns and labels:
# Experiment in all cases: in vitro antibacterial evaluation, MIC by broth dilution
# Type in all cases: cell-based
# Escherichia coli = details: for MIC Escherichia coli (ATCC 25922): strain ATCC 25922, 18 hours at 35° C.; for MIC Escherichia coli (GC 4559): strain GC 4559, 18 hours at 35° C.; for MIC Escherichia coli (GC 4560): strain GC 4560, 18 hours at 35° C.
# Summary of the method: (§1)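 Broth dilution per NCCLS M7-A2 in Mueller-Hinton II medium, inoculum 5×10^5 CFU/mL, antibiotic range 64-0.06 μg/mL. MIC taken as lowest concentration inhibiting growth; Gram-positive panel includes recent clinical isolates resistant to methicillin, penicillin and/or vancomycin.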
# Enterococcus sp. = details: broth dilution, 18 hours at 35° C.
# Summary of the method: as §1
# Staphylococcus sp. = details: broth dilution, 18 hours at 35° C.; for MIC Staphylococcus aureus (GC 1131): strain GC 1131; for MIC Staphylococcus aureus (ATCC 29213): strain ATCC 29213; for MIC Staphylococcus aureus (GC 3051): strain GC 3051; for MIC Staphylococcus aureus (GC 3053): strain GC 3053; for MIC Staphylococcus aureus (GC 4541): strain GC 4541; for MIC Staphylococcus aureus (GC 4542): strain GC 4542; for MIC Staphylococcus aureus (GC 4544): strain GC 4544; for MIC Staphylococcus aureus (GC 4545): strain GC 4545; for MIC Staphylococcus haemolyticus (GC 4546): strain GC 4546; for MIC Coagulase Negative Staphylococcus (GC 4547): strain GC 4547; for MIC Coagulase Negative Staphylococcus (GC 4548): strain GC 4548; for MIC Coagulase Negative Staphylococcus (GC 4549): strain GC 4549; for MIC Coagulase Negative Staphylococcus (GC 4551): strain GC 4551; for MIC Coagulase Negative Staphylococcus (GC 6257): strain GC 6257
# Summary of the method: as §1
# Streptococcus sp. = details: broth dilution, 18 hours at 35° C.
# Summary of the method: as §1
# [1] = Enterococcus faecalis (ATCC 29212)
# [2] = Enterococcus faecalis (GC 2242)
# [3] = Enterococcus faecalis (GC 2691)
# [4] = Enterococcus faecalis (GC 3059)
# [5] = Enterococcus faecalis (GC 4552)
# [6] = Enterococcus faecalis (GC 4553)
# [7] = Enterococcus faecalis (GC 4554)
# [8] = Enterococcus faecalis (GC 6189)
# [9] = Streptococcus agalactiae (GC 4564)
# [10] = Streptococcus pneumoniae (ATCC 6301)
# [11] = Streptococcus pneumoniae (GC 1894)
# [12] = Streptococcus pneumoniae (GC 4565)
# [13] = Streptococcus pyogenes (GC 4563)
smiles,measurement,setting,value
COc1cc(OC)cc(C2OCC3OC(OC4C(CO)OC(Oc5ccc(CC6NC(=O)C(C(C)c7ccccc7)NC(=O)CNC(=O)C(CO)NC(=O)C(C(O)C7CNC(=N)N7C7OC(CO)C(O)C(O)C7O)NC(=O)C(C(O)C7CNC(=N)N7)NC6=O)cc5)C(O)C4O)C(O)C(O)C3O2)c1 (stereo not drawn) [Example 150],MIC Escherichia coli (ATCC 25922),Escherichia coli,>64 µg/mL
same,MIC Escherichia coli (GC 4559),Escherichia coli,32 µg/mL
same,MIC Escherichia coli (GC 4560),Escherichia coli,1 µg/mL
same,MIC Enterococcus avium (GC 4558),Enterococcus sp.; Enterococcus avium (GC 4558),8 µg/mL
same,MIC Enterococcus faecalis (ATCC 29212),Enterococcus sp.; [1],8 µg/mL
same,MIC Enterococcus faecalis (GC 2242),Enterococcus sp.; [2],4 µg/mL
same,MIC Enterococcus faecalis (GC 2691),Enterococcus sp.; [3],4 µg/mL
same,MIC Enterococcus faecalis (GC 3059),Enterococcus sp.; [4],8 µg/mL
same,MIC Enterococcus faecalis (GC 4552),Enterococcus sp.; [5],8 µg/mL
same,MIC Enterococcus faecalis (GC 4553),Enterococcus sp.; [6],8 µg/mL
same,MIC Enterococcus faecalis (GC 4554),Enterococcus sp.; [7],8 µg/mL
same,MIC Enterococcus faecalis (GC 6189),Enterococcus sp.; [8],8 µg/mL
same,MIC Enterococcus faecium (GC 2243),Enterococcus sp.; Enterococcus faecium (GC 2243),8 µg/mL
same,MIC Enterococcus faecium (GC 4556),Enterococcus sp.; Enterococcus faecium (GC 4556),8 µg/mL
same,MIC Enterococcus faecium (GC 4557),Enterococcus sp.; Enterococcus faecium (GC 4557),4 µg/mL
same,MIC Enterococcus faecalis (ATCC 29212),Enterococcus sp.; strain ATCC 29212,8 µg/mL
same,MIC Enterococcus faecalis (GC 2242),Enterococcus sp.; strain GC 2242,4 µg/mL
same,MIC Enterococcus faecium (GC 2243),Enterococcus sp.; strain GC 2243,8 µg/mL
same,MIC Enterococcus faecalis (GC 2691),Enterococcus sp.; strain GC 2691,4 µg/mL
same,MIC Enterococcus faecalis (GC 3059),Enterococcus sp.; strain GC 3059,8 µg/mL
same,MIC Enterococcus faecalis (GC 4552),Enterococcus sp.; strain GC 4552,8 µg/mL
same,MIC Enterococcus faecalis (GC 4553),Enterococcus sp.; strain GC 4553,8 µg/mL
same,MIC Enterococcus faecalis (GC 4554),Enterococcus sp.; strain GC 4554,8 µg/mL
same,MIC Enterococcus faecium (GC 4556),Enterococcus sp.; strain GC 4556,8 µg/mL
same,MIC Enterococcus faecium (GC 4557),Enterococcus sp.; strain GC 4557,4 µg/mL
same,MIC Enterococcus avium (GC 4558),Enterococcus sp.; strain GC 4558,8 µg/mL
same,MIC Enterococcus faecalis (GC 6189),Enterococcus sp.; strain GC 6189,8 µg/mL
same,MIC Staphylococcus aureus (GC 1131),Staphylococcus sp.; inoculum 5×10^5 CFU/mL,4 µg/mL
same,MIC Staphylococcus aureus (ATCC 29213),Staphylococcus sp.,2 µg/mL
same,MIC Staphylococcus aureus (GC 1131),Staphylococcus sp.,4 µg/mL
same,MIC Staphylococcus aureus (GC 3051),Staphylococcus sp.,2 µg/mL
same,MIC Staphylococcus aureus (GC 3053),Staphylococcus sp.,8 µg/mL
same,MIC Staphylococcus aureus (GC 4541),Staphylococcus sp.,2 µg/mL
same,MIC Staphylococcus aureus (GC 4542),Staphylococcus sp.,2 µg/mL
same,MIC Staphylococcus aureus-SMITH (GC 4543),Staphylococcus sp.; strain GC 4543,2 µg/mL
same,MIC Staphylococcus aureus (GC 4544),Staphylococcus sp.,2 µg/mL
same,MIC Staphylococcus aureus (GC 4545),Staphylococcus sp.,2 µg/mL
same,MIC Staphylococcus haemolyticus (GC 4546),Staphylococcus sp.,1 µg/mL
same,MIC Coagulase Negative Staphylococcus (GC 4547),Staphylococcus sp.,2 µg/mL
same,MIC Coagulase Negative Staphylococcus (GC 4548),Staphylococcus sp.,1 µg/mL
same,MIC Coagulase Negative Staphylococcus (GC 4549),Staphylococcus sp.,1 µg/mL
same,MIC Coagulase Negative Staphylococcus (GC 4551),Staphylococcus sp.,2 µg/mL
same,MIC Coagulase Negative Staphylococcus (GC 6257),Staphylococcus sp.,1 µg/mL
same,MIC Staphylococcus aureus-SMITH (GC 4543),Staphylococcus sp.; strain SMITH GC 4543,2 µg/mL
same,MIC Streptococcus agalactiae (GC 4564),Streptococcus sp.; [9],1 µg/mL
same,MIC Streptococcus pneumoniae (ATCC 6301),Streptococcus sp.; [10],0.25 µg/mL
same,MIC Streptococcus pneumoniae (GC 1894),Streptococcus sp.; [11],0.12 µg/mL
same,MIC Streptococcus pneumoniae (GC 4565),Streptococcus sp.; [12],0.25 µg/mL
same,MIC Streptococcus pyogenes (GC 4563),Streptococcus sp.; [13],0.5 µg/mL
same,MIC Streptococcus pneumoniae (ATCC 6301),Streptococcus sp.; strain ATCC 6301,0.25 µg/mL
same,MIC Streptococcus pneumoniae (GC 1894),Streptococcus sp.; strain GC 1894,0.12 µg/mL
same,MIC Streptococcus pyogenes (GC 4563),Streptococcus sp.; strain GC 4563,0.5 µg/mL
same,MIC Streptococcus agalactiae (GC 4564),Streptococcus sp.; strain GC 4564,1 µg/mL
same,MIC Streptococcus pneumoniae (GC 4565),Streptococcus sp.; strain GC 4565,0.25 µg/mL
COc1cc(OC)cc(C2OC3C(OC4C(CO)OC(Oc5ccc(CC6NC(=O)C(C(C)c7ccccc7)NC(=O)CNC(=O)C(CO)NC(=O)C(C(O)C7CNC(=N)N7C7OC(CO)C(O)C(O)C7O)NC(=O)C(C(O)C7CNC(=N)N7)NC6=O)cc5)C(O)C4O)OC(CO)C(O)C3O2)c1 (stereo not drawn) [Example 150a],MIC Escherichia coli (ATCC 25922),Escherichia coli,>64 µg/mL
same,MIC Escherichia coli (GC 4559),Escherichia coli,>64 µg/mL
same,MIC Escherichia coli (GC 4560),Escherichia coli,16 µg/mL
same,MIC Enterococcus avium (GC 4558),Enterococcus sp.; Enterococcus avium (GC 4558),64 µg/mL
same,MIC Enterococcus faecalis (ATCC 29212),Enterococcus sp.; [1],>64 µg/mL
same,MIC Enterococcus faecalis (GC 2242),Enterococcus sp.; [2],>64 µg/mL
same,MIC Enterococcus faecalis (GC 2691),Enterococcus sp.; [3],>64 µg/mL
same,MIC Enterococcus faecalis (GC 3059),Enterococcus sp.; [4],>64 µg/mL
same,MIC Enterococcus faecalis (GC 4552),Enterococcus sp.; [5],>64 µg/mL
same,MIC Enterococcus faecalis (GC 4553),Enterococcus sp.; [6],>64 µg/mL
same,MIC Enterococcus faecalis (GC 4554),Enterococcus sp.; [7],>64 µg/mL
same,MIC Enterococcus faecalis (GC 6189),Enterococcus sp.; [8],>64 µg/mL
same,MIC Enterococcus faecium (GC 2243),Enterococcus sp.; Enterococcus faecium (GC 2243),>64 µg/mL
same,MIC Enterococcus faecium (GC 4556),Enterococcus sp.; Enterococcus faecium (GC 4556),>64 µg/mL
same,MIC Enterococcus faecium (GC 4557),Enterococcus sp.; Enterococcus faecium (GC 4557),16 µg/mL
same,MIC Enterococcus faecalis (ATCC 29212),Enterococcus sp.; strain ATCC 29212,>64 µg/mL
same,MIC Enterococcus faecalis (GC 2242),Enterococcus sp.; strain GC 2242,>64 µg/mL
same,MIC Enterococcus faecium (GC 2243),Enterococcus sp.; strain GC 2243,>64 µg/mL
same,MIC Enterococcus faecalis (GC 2691),Enterococcus sp.; strain GC 2691,>64 µg/mL
same,MIC Enterococcus faecalis (GC 3059),Enterococcus sp.; strain GC 3059,>64 µg/mL
same,MIC Enterococcus faecalis (GC 4552),Enterococcus sp.; strain GC 4552,>64 µg/mL
same,MIC Enterococcus faecalis (GC 4553),Enterococcus sp.; strain GC 4553,>64 µg/mL
same,MIC Enterococcus faecalis (GC 4554),Enterococcus sp.; strain GC 4554,>64 µg/mL
same,MIC Enterococcus faecium (GC 4556),Enterococcus sp.; strain GC 4556,>64 µg/mL
same,MIC Enterococcus faecium (GC 4557),Enterococcus sp.; strain GC 4557,16 µg/mL
same,MIC Enterococcus avium (GC 4558),Enterococcus sp.; strain GC 4558,64 µg/mL
same,MIC Enterococcus faecalis (GC 6189),Enterococcus sp.; strain GC 6189,>64 µg/mL
same,MIC Staphylococcus aureus (GC 1131),Staphylococcus sp.; inoculum 5×10^5 CFU/mL,32 µg/mL
same,MIC Staphylococcus aureus (ATCC 29213),Staphylococcus sp.,32 µg/mL
same,MIC Staphylococcus aureus (GC 1131),Staphylococcus sp.,32 µg/mL
same,MIC Staphylococcus aureus (GC 3051),Staphylococcus sp.,32 µg/mL
same,MIC Staphylococcus aureus (GC 3053),Staphylococcus sp.,32 µg/mL
same,MIC Staphylococcus aureus (GC 4541),Staphylococcus sp.,16 µg/mL
same,MIC Staphylococcus aureus (GC 4542),Staphylococcus sp.,32 µg/mL
same,MIC Staphylococcus aureus-SMITH (GC 4543),Staphylococcus sp.; strain GC 4543,16 µg/mL
same,MIC Staphylococcus aureus (GC 4544),Staphylococcus sp.,32 µg/mL
same,MIC Staphylococcus aureus (GC 4545),Staphylococcus sp.,16 µg/mL
same,MIC Staphylococcus haemolyticus (GC 4546),Staphylococcus sp.,16 µg/mL
same,MIC Coagulase Negative Staphylococcus (GC 4547),Staphylococcus sp.,16 µg/mL
same,MIC Coagulase Negative Staphylococcus (GC 4548),Staphylococcus sp.,8 µg/mL
same,MIC Coagulase Negative Staphylococcus (GC 4549),Staphylococcus sp.,8 µg/mL
same,MIC Coagulase Negative Staphylococcus (GC 4551),Staphylococcus sp.,32 µg/mL
same,MIC Coagulase Negative Staphylococcus (GC 6257),Staphylococcus sp.,8 µg/mL
same,MIC Staphylococcus aureus-SMITH (GC 4543),Staphylococcus sp.; strain SMITH GC 4543,16 µg/mL
same,MIC Streptococcus agalactiae (GC 4564),Streptococcus sp.; [9],32 µg/mL
same,MIC Streptococcus pneumoniae (ATCC 6301),Streptococcus sp.; [10],8 µg/mL
same,MIC Streptococcus pneumoniae (GC 1894),Streptococcus sp.; [11],8 µg/mL
same,MIC Streptococcus pneumoniae (GC 4565),Streptococcus sp.; [12],16 µg/mL
same,MIC Streptococcus pyogenes (GC 4563),Streptococcus sp.; [13],16 µg/mL
same,MIC Streptococcus pneumoniae (ATCC 6301),Streptococcus sp.; strain ATCC 6301,8 µg/mL
same,MIC Streptococcus pneumoniae (GC 1894),Streptococcus sp.; strain GC 1894,8 µg/mL
same,MIC Streptococcus pyogenes (GC 4563),Streptococcus sp.; strain GC 4563,16 µg/mL
same,MIC Streptococcus agalactiae (GC 4564),Streptococcus sp.; strain GC 4564,32 µg/mL
same,MIC Streptococcus pneumoniae (GC 4565),Streptococcus sp.; strain GC 4565,16 µg/mL
